Results as given in patent US20250136618A1, “ANTIBIOTIC PYRAZINOTHIAZINE DERIVATIVES AND PROCESS OF PREPARATION THEREOF” (Bugworks Research India PVT Ltd, priority 2021, published 2025).

Legend:
Format in all cases: cell-based
[1] = test system: Morganella morganii; assay: MIC90 determination, clinical strains (CLSI); conditions: N=11
[2] = test system: Proteus mirabilis; assay: MIC90 determination, clinical strains (CLSI); conditions: N=12
[3] = biological target: hERG potassium channel (Homo sapiens (Human), UniProt Q12809); assay: hERG inhibition assay (Qpatch HTX automated electrophysiology); conditions: CHO cell line expressing hERG, whole-cell patch clamp
hERG potassium channel, sequence (Q12809 whole entry): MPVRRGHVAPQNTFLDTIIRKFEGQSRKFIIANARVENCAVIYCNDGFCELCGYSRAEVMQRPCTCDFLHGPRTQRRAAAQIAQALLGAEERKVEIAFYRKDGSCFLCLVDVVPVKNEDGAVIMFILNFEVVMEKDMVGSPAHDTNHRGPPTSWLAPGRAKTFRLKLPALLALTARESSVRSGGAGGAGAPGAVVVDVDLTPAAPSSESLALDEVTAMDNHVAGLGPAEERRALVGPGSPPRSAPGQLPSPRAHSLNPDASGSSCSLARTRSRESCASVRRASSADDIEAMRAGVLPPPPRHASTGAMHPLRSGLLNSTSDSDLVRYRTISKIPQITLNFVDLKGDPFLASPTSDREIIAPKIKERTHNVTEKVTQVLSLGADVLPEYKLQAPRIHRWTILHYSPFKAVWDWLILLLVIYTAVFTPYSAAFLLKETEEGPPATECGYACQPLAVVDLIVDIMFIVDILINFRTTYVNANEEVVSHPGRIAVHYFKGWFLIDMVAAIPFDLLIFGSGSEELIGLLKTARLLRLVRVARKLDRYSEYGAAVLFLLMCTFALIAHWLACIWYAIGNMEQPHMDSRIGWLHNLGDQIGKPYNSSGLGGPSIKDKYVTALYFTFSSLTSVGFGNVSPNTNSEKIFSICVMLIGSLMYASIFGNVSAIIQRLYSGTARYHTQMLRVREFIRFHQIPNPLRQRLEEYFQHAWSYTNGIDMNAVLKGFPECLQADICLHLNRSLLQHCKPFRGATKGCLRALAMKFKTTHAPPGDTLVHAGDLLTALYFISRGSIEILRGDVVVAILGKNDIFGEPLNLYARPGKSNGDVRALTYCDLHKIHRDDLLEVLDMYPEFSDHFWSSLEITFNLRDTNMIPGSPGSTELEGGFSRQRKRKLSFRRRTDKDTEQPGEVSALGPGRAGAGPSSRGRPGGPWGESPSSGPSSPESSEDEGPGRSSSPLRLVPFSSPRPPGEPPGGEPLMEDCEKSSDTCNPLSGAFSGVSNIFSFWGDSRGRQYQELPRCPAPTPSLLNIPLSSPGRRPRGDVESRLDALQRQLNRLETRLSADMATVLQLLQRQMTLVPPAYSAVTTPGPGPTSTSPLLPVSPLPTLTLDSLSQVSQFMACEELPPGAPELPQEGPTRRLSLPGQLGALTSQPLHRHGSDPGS
Protocol: Electrophysiological recordings were made from a Chinese Hamster Ovary cell line stably expressing the full-length hERG potassium channel. Single cell ionic currents were measured in whole-cell patch clamp configuration at room temperature (21-23° C.) using the Qpatch HTX platform (Sophion). Intracellular solution contained (mM): 120 KF, 20 KCl, 10 EGTA, 10 HEPES and was buffered to pH 7.3. […] Cells were clamped at a holding potential of −80 mV. Cells were stepped to +20 mV for 2 s then −40 mV for 3 s before returning to the holding potential. […] Compounds were then incubated for 2 minutes prior to a second measurement of ion channel current using an identical pulse train.

[4] = test system: Klebsiella aerogenes, K. oxytoca; assay: MIC90 determination, clinical strains (CLSI); conditions: N=17
[5] = test system: Serratia marcescens; assay: MIC90 determination, clinical strains (CLSI); conditions: N=15
[6] = test system: Acinetobacter baumannii; assay: MIC90 determination, clinical strains (CLSI); conditions: N=38
[7] = test system: CHO-K1 cells; assay: In-vitro micronucleus assay
Protocol: Genetic toxicology studies were performed on the compounds of the present disclosure to assess their ability to cause DNA damage. The in-vitro micronucleus assay measured the concentration (μM) of the compound at which micronuclei formation occurred. A micronuclei formation at lower concentration indicates more genetic damage or genotoxicity.
Micronucleus formation is a hallmark of genotoxicity, and the micronucleus assay is an important component of genotoxicity screening. Micronuclei are chromatin-containing bodies that represent fragments or even whole chromosomes that were not incorporated into a daughter cell nucleus at mitosis. The purpose of the assay is to detect agents that induce chromosome damage leading to the induction of micronuclei in interphase cells. The in vitro micronucleus assay was conducted in CHO-K1 cells according to the procedure described by Diaz, D et al [Mutat Res. 630(1-2):1-13. […] The formation of the micronucleus is identified by image-based high content analysis from binucleated cells.

[8] = test system: Pseudomonas aeruginosa; assay: MIC90 determination, clinical strains (CLSI); conditions: N=34
[9] = test system: Escherichia coli; assay: MIC90 determination, clinical strains (CLSI); conditions: N=38
[10] = test system: Providencia rettgeri, P. stuartii; assay: MIC90 determination, clinical strains (CLSI); conditions: N=12
[11] = test system: Citrobacter freundii; assay: MIC90 determination, clinical strains (CLSI); conditions: N=19
[12] = test system: Pseudomonas aeruginosa ATCC 27853; assay: Minimum Inhibitory Concentration (MIC) in LB media
From the text: (§1) The compounds of Formula Ia and Formula Ib are of interest due to their potent antibacterial effects. The ability of the compounds disclosed herein to achieve an antibacterial effect may be evaluated with regard to their ability to inhibit the growth of bacterial species like Escherichia coli ATCC 25922, Staphylococcus aureus ATCC 29213, Klebsiella pneumoniae ATCC 13883, Acinetobacter baumannii ATCC 19606, Pseudomonas aeruginosa ATCC 27853 and Enterococcus faecalis ATCC 29212 using an assay based on the following Minimum Inhibitory Concentration (MIC) protocol:
(§2) The test bacteria were grown in Luria Bertani Broth (HIMEDIA M1245), 25 g of the powder was dissolved in 1000 ml distilled water and sterilized by autoclaving at 15 lbs pressure (121° C.) for 20 minutes. The medium sterility was checked by incubating at 37° C. for a period of 48 h. Bacterial cultures that were stored as glycerol stocks at −80° C. were subcultured on LB agar plates to obtain isolated colonies. A single colony of each strain was cultured in LB broth. The cultures were incubated at 37° C., 200 rpm till they reached an optical density (OD at 600 nm) of 0.8 to 1. This log phase culture was diluted in LB broth to a cell number of 5-8*10^5 CFU/mL to be used as inoculum for MIC experiments. Test compounds were dissolved in dimethyl sulfoxide (DMSO) to a stock concentration of 4 mg/ml. A two-fold dilution series of this DMSO stock was prepared in a 96 well V bottom microtitre plate from rows A to H. A 3 μL volume of these dilutions are transferred to a 96-well flat bottom microtitre assay plate. Controls to monitor the effects of DMSO and media sterility were included. Each well was inoculated with 150 μL of the above diluted culture. The plates were incubated at 37° C. overnight in a humidified incubator. The following morning, the plates were read using a Spectrophotometer at 600 nm wavelength. […] The antibacterial activity (MIC) determined against representative gram-positive (S. aureus, E. faecalis) and gram-negative (E. coli, Aeruginosa, K. pneumoniae, and A. baumannii) pathogen are reported Table 1.

[13] = test system: Staphylococcus aureus ATCC 29213; assay: Minimum Inhibitory Concentration (MIC) in LB media
From the text: as §1, §2

[14] = test system: Klebsiella pneumoniae ATCC 13883; assay: Minimum Inhibitory Concentration (MIC) in LB media
From the text: as §1, §2

[15] = test system: Acinetobacter baumannii ATCC 19606; assay: Minimum Inhibitory Concentration (MIC) in LB media
From the text: as §1, §2

[16] = test system: Escherichia coli ATCC 25922; assay: Minimum Inhibitory Concentration (MIC) in LB media
From the text: as §1, §2

[17] = test system: Enterococcus faecalis ATCC 29212; assay: Minimum Inhibitory Concentration (MIC) in LB media
From the text: as §1, §2

[18] = test system: Enterobacter cloacae; assay: MIC90 determination, clinical strains (CLSI); conditions: N=26
[19] = test system: Klebsiella pneumoniae; assay: MIC90 determination, clinical strains (CLSI); conditions: N=86

Substance: (S)-5-(((2-((4-Methyl-d3)-3-oxo-1,2,3,4-tetrahydropyrido[2,3-b]pyrazin-6-yl)oxy)ethyl)amino)methyl)-3-(3-oxo-3,4-dihydro-2H-pyrazino[2,3-b][1,4]thiazin-6-yl)oxazolidin-2-one [Compound 10]
- MIC 90 Morganella morganii [1]: 1 µg/mL
- MIC 90 Proteus mirabilis [2]: 4 µg/mL
- IC50 [3]: 157 µM
- MIC 90 Klebsiella aerogenes, K. oxytoca [4]: 2 µg/mL
- MIC 90 Serratia marcescens [5]: 16 µg/mL
- MIC 90 Acinetobacter baumannii [6]: 1 µg/mL
- genotoxicity risk (in words) [7]: completely devoid of any genotoxicity risk
- % (in-vitro micronucleus assay) ([7]; CHO-K1 cells): 0.45%
- In vitro micronucleus forming concentration ([7]; CHO-K1 cells): >1000 µM
- MIC 90 Pseudomonas aeruginosa [8]: 4 µg/mL
- MIC 90 Escherichia coli [9]: 0.5 µg/mL
- MIC 90 Providencia rettgeri, P. stuartii [10]: 1 µg/mL
- MIC 90 Citrobacter freundii [11]: 2 µg/mL
- Minimum Inhibitory Concentration Aeruginosa ATCC 27853 [12]: 1 µg/mL
- Minimum Inhibitory Concentration S. aureus ATCC 29213 [13]: <0.015 µg/mL
- Minimum Inhibitory Concentration K. pneumoniae ATCC 13883 [14]: 0.06 µg/mL
- Minimum Inhibitory Concentration A. baumannii ATCC 19606 [15]: 0.06 µg/mL
- Minimum Inhibitory Concentration E. coli ATCC 25922 [16]: 0.06 µg/mL
- Minimum Inhibitory Concentration E. faecalis ATCC 29212 [17]: 0.125 µg/mL
- MIC 90 Enterobacter cloacae [18]: 8 µg/mL
- MIC 90 Klebsiella pneumoniae [19]: 8 µg/mL
